# Laboratory results from US7517996B2, “Azole compound” (Ajinomoto Co., Inc., priority 2003, dated 2009).
# How the values were obtained:
# EDG2 = EDG2 (Homo sapiens, UniProt Q92633); settings: as described in WO01/060819; cited from earlier work
# [1] = tested on: peripheral circulation disorder model induced by lactic acid; settings: animal model of peripheral arterial obstruction; as described in WO01/060819; cited from earlier work
# [2] = Inhibition of LPA-induced intracellular Ca2+ concentration increase (FLIPR); assay type: cell-based; settings: LPA final concentration 5 μM; rat hepatic stellate cell derived myofibroblast like clone; Fluo-3, FLIPR
# Source text: (1) Establishment of Myofibroblast Like Cell Strain Derived from Rat Hepatic Stellate Cell Fraction A stellate cell fraction was obtained from the liver of male Wistar rat according to a conventional method (European J. Biochem., 1993, vol. 213, p. 815). After subculture for several generations, the cell was cloned by limiting dilution. Well grown 24 clones that formed colonies were isolated. These clones were stained with αSMA antibody and confirmed to be all positive and to have Myofibroblast like properties. […] (2) Measurement of Cell Activation (Intracellular Ca^2+ Concentration Increasing Action)-Inhibitory Activity The above-mentioned cells were cultured overnight in a 384 well plate at 24,000 cells/well and the medium was removed. An assay buffer (0.1% BSA, 20 mM HEPES, 1×HBSS, 2.5 mM Probenecid) containing 4 μM of Fluo-3, AM (Biotium) was added, and the cells were stained at 37° C. for 1 hour. Following the buffer containing the dye reagent was removed, and an assay buffer was added, intracellular Ca^2+ concentration was measured with FLIPR (Molecular Devices). Adding a test substance and LPA at the final concentration of 5 μM, the inhibitory action of the test substance on the increase in the intracellular Ca^2+ concentration by LPA was examined. The increase in the intracellular Ca^2+ concentration by LPA addition without test substance was taken as 100%, that without the addition of LPA was taken as 0%, and the substrate's concentration (IC50) at inhibiting increase in the intracellular Ca^2+ concentration by 50% was determined.
# Sequence of EDG2 (Q92633 whole entry): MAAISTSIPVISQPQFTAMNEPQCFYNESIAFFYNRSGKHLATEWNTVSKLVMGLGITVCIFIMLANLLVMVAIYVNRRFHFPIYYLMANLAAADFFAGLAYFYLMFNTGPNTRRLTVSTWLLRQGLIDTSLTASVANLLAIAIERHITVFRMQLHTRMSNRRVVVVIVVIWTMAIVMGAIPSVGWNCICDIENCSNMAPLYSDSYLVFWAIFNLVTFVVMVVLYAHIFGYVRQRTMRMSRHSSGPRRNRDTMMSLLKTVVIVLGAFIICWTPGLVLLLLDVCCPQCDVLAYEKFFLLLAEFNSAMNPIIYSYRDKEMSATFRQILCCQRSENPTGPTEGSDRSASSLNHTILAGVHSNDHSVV
structure (smiles),measurement,setting,value
"COC(=O)CCSCc1ccc(-c2onc(C)c2NC(=O)OC(C)c2ccccc2Cl)cc1 (stereo not drawn) [Example 115, methyl 3-([4-[4-([[1-(2-chlorophenyl)ethoxy]carbonyl]amino)-3-methyl-5-isoxazolyl]benzyl]-sulfanyl)propanoate]",EDG2 antagonistic action,EDG2,strong EDG2 antagonistic action
same,action in peripheral circulation disorder model induced by lactic acid,[1],improving action
same,IC50,[2],836 nM
